Results as given in article PMC7026387, “Improved Prediction of Aqueous Solubility of Novel Compounds by Going Deeper With Deep Learning” (Frontiers in Oncology, 2020).
≈ marks a conversion by molar mass, not a printed value. Like-named read-outs stand apart in the source and are kept apart here. One block for each compound: values may come before it.

Columns and labels:
[1] = cited from earlier work; for LogS_exp: experimental aqueous solubility: literature S values converted to mol/L and transformed into logS; for Experimental S value: room-temperature, around pH 7.0
[2] = Aqueous solubility (pH 7) by modified shake flask method and RP-HPLC; assay type: physicochemical
Method: In one of our drugs discovering projects toward antitumor therapeutics, a series of novel FLT3 inhibitors were designed and synthesized using the structure-based drug design methods. The aqueous solubilities (pH = 7) of these compounds were measured using the modified shake flask method and RP-HPLC ([34], [35]). Each compound was added into a 1.5 mL Eppendorf tube containing Milli-Q water (1 mL) to form the precipitates at 25°C. Then the mixture was subjected to a solubility-equilibrium stage. The tube was shook at 300 rpm at 25°C for 24 h. The precipitate was separated by centrifugation at 23,000 g for 20 min. Subsequently, 0.25 mL of supernatant was transferred into a 1 mL Eppendorf tube, and it was centrifuged again with the same settings used above. The supernatant was then used for HPLC analysis. An Agilent 1260 Infinity LC system (Agilent Technologies, Inc., Santa Clara, California) was used. For HPLC conditions, a ZORBAX SB-C18 column (5 μM, 4.6 × 150 mm; Agilent), a flow rate of 0.8 mL/min for mobile phase, a UV wavelength of 250 nm and a column temperature of 30°C were used. The sample was injected automatically by a mechanical arm and separated by a constant mixture of methanol/PBS (pH 5.6), 90:10. For each compound, a standard curve consisting of four concentrations was established. The synthetic methods of all but compound SC5 and SC6 have been published in literatures ([36]–[39]). The synthetic methods of SC5 and SC6 are described in Supplementary Method 1.

[3] = method NA, ref Hamdy et al., 2017
[4] = by HPLC, ref Thompson et al., 2018
[5] = Milli-Q water, pH 7, 25°C, 24 h shaking, RP-HPLC, read-out: Experimental S value

Compound: COC1=C/C(=N/NC(=O)c2ccncc2)C[C@@H](C)[C@]12Oc1c(Cl)c(OC)cc(OC)c1C2=O (relative stereo) [NC4]
LogS_exp: experimental aqueous solubility [1]: -4.576 logarithmic units of mol/L
Experimental S value [1, 3]: 12.53 µg/mL

Compound: COc1cc(OC)c2c(c1Cl)O[C@]1(C2=O)C(OCc2ccccc2)=C/C(=N\OCC(=O)O)C[C@H]1C (relative stereo) [NC5]
LogS_exp: experimental aqueous solubility [1]: -4.254 logarithmic units of mol/L
Experimental S value [1, 3]: 27.94 µg/mL

Compound: CN(Cc1ccc(C(F)(F)F)cc1)c1cc(C(=O)Nc2ncn(C)n2)ncn1 [NC2]
LogS_exp: experimental aqueous solubility [1]: -3.762 logarithmic units of mol/L
Experimental S value ([1]; method NA, ref Wilson et al., 2017): 173 µM

Compound: O=C(Nc1ccccc1OC(F)(F)F)N[C@@H]1COc2nc([N+](=O)[O-])cn2C1 [NC3]
Experimental S value [1, 4]: 22 µg/mL
LogS_exp: experimental aqueous solubility [1]: -4.246 logarithmic units of mol/L

Compound: O=C(/C=C(/C=C/c1cccnc1)NCCO)/C=C/c1cccnc1 [NC6]
Experimental S value ([1]; by shake flask method and colorimetry, ref Theppawong et al., 2018): 4350.8 µM
LogS_exp: experimental aqueous solubility [1]: -2.361 logarithmic units of mol/L

Compound: O=[N+]([O-])c1cn2c(n1)OC[C@H](Oc1ccc(C(F)(F)F)cn1)C2 [NC7]
Experimental S value [1, 4]: 110 µg/mL

solubility thermodynamic at 24 h [2, 5]: 0.0307 mg/mL (≈ 174 µM)
Compound: N#CCC(=O)c1cc(C#N)cs1 [SC1]

solubility thermodynamic at 24 h ([2]; pH 7, water): 0.0317 mg/mL (≈ 167 µM)
Compound: N#Cc1csc(-c2cc(N)[nH]n2)c1 [SC2]

solubility thermodynamic at 24 h [2, 5]: 0.0607 mg/mL (≈ 124 µM)
Compound: Cc1nc(Nc2c[nH]nc2C(=O)Nc2ccc(CN3CCOCC3)cc2)c2cc(C(C)C)sc2n1 [SC3]

Experimental S value ([2]; Milli-Q water, pH 7, 25°C, 24 h shaking, RP-HPLC): 0.10491 mg/mL
solubility thermodynamic at 24 h [2, 5]: 0.105 mg/mL (≈ 185 µM)
Compound: Cc1nc2c(c(-c3nc(Nc4c[nH]nc4C(=O)Nc4ccc(N5CCNCC5)cc4)c4ccsc4n3)n1)CCCC2 [SC4]

Experimental S value ([2]; 24 h, pH 7): 0.019714 mg/mL
solubility thermodynamic at 24 h ([2]; pH 7, water): 0.0197 mg/mL (≈ 41.8 µM)
melting point: 236 to 238 °C
Compound: COc1ccc(Oc2ccc3c(NC(=O)c4ccc(NC5CCN(C)CC5)cc4)n[nH]c3c2)cc1 [SC5]

solubility thermodynamic at 24 h ([2]; pH 7, water): < 0.01 mg/mL
Compound: CN1CCC(Nc2ccc(C(=O)Nc3n[nH]c4cc(Oc5ccccc5)ccc34)cc2)CC1 [SC6]
